Assay results taken from patent US6300313A, “Means for treating prostate hypertrophy and prostate cancer” (ASTA Medica Aktiengesellschaft, priority 1999, dated 2001).
Non-standard residues stand in square brackets, D forms with d. Residues, ends and D or L forms follow the SMILES beside them. dPhe(4-Cl) = N[C@H](Cc1ccc(Cl)cc1)C(=O)O; d2Nal = N[C@H](Cc1ccc2ccccc2c1)C(=O)O; dCit = NC(=O)NCCC[C@@H](N)C(=O)O; d3Pal = N[C@H](Cc1cccnc1)C(=O)O

Columns and labels:
[1] = tested on: Prostate carcinoma patients; settings: cited from earlier work
BPH patients = settings: 500 μg every 12 hours for 4 weeks, cited from earlier work
BPH = assay: Clinical therapy of BPH with Cetrorelix (Example 1); type: in vivo, patients; settings: Example 1 therapy regimen
Protocol: Cetrorelix is administered in a dose of 0.5 mg to 2 mg daily for 4 to 8 weeks for the therapy of BPH. A dose of 5 mg to 30 mg, dispensed once per week or every 10 days also over a time period of 4 to 8 weeks as well as one every two weeks or one injection per month of 20 mg to 60 mg can also decisively improve the clinical symptoms and signs. […] The prostate volume decreases by 20 to 40% during the treatment time of 4 to 8 weeks. […] In addition, at least 30% of the patients achieve an improvement of the urine flow of 6 ml/sec with this therapy. This is almost equivalent to an improvement like that associated with the golden standard operation, and in considerably shorter time. […] These clinical benefits continue for at least 3 to 6 months after therapy. This allows a long-term therapy of BPH with only an intermittent treatment of 2 to max. 4 injection cycles over 4 to 8 weeks.

Q: With `CC(=O)N[C@H](Cc1ccc2ccccc2c1)C(=O)N[C@H](Cc1ccc(Cl)cc1)C(=O)N[C@H](Cc1cccnc1)C(=O)N[C@@H](CO)C(=O)N[C@@H](Cc1ccc(O)cc1)C(=O)N[C@H](CCCNC(N)=O)C(=O)N[C@@H](CC(C)C)C(=O)N[C@@H](CCCNC(=N)N)C(=O)N1CCC[C@H]1C(=O)N[C@H](C)C(N)=O` [Cetrorelix] (Ac-[d2Nal][dPhe(4-Cl)][d3Pal]SY[dCit]LRP[dA]-NH2) as the molecule, how does the “testosterone levels, initially” value ([1]; 500 μg every 12 hours for 6 weeks, initial phase) read?
A: lowering in testosterone levels to a castration level

Q: And the “overall condition of the patient” value ([1]; end of the 6 weeks of therapy)?
A: considerable improvement

Q: What about the “testosterone values at the end of therapy” value ([1]; end of the 6 weeks of therapy) of the same molecule?
A: castration levels

Q: And the “symptoms of dysuria and prostate volume” value (BPH patients)?
A: distinct decrease

Q: And the “testosterone levels, initially” value (BPH patients; initial phase)?
A: lowering in testosterone levels to a castration level

Q: And the “testosterone levels in the course of treatment” value (BPH patients; no castration values during the last three weeks)?
A: fluctuated at subnormal levels

Q: And the quality of life (BPH)?
A: significant improvements

Q: What about the sexual performance (BPH) of the same molecule?
A: No limitations in sexual performance are observed

Q: What about the testosterone level (BPH) of the same molecule?
A: Submaximal decreases of testosterone occur, but these are above those levels associated with castration

Q: And the “increase of the peak flow of the urine” value (BPH; 4 to 8 weeks)?
A: approximately 3 ml/sec

Q: And the “patients achieving an improvement of the urine flow of 6 ml/sec” value (BPH; 4 to 8 weeks)?
A: at least 30%
